# Test results taken from patent US11590109B2 (priority 2016, dated 2023).
# How the values were obtained:
# [1] = in vitro; details: African green monkey
# [2] = tested on: H1N1 (influenza virus); assay: microbe, parasite or virus in culture; details: Influenza A virus, H1N1, MDCK
# [3] = tested on: JEV (Japanese encephalitis virus); assay: Inhibition of viral replication (CPE) at cellular level, JEV in Vero; details: for SI (TC50/IC50): JEV in host cell Vero; for IC50: Japanese encephalitis virus, Vero
# [4] = Determination of TC50 (half toxicity concentration) in RD cells; assay type: cell-based; details: human, host cell RD, EV71 table
# [5] = tested on: Dengue Virus 2 (type 2 dengue virus); assay: Inhibition of viral replication (CPE) at cellular level, Dengue Virus 2 in Vero; assay type: cell-based; details: Dengue Virus 2 in host cell Vero; for IC50: CPE
# Description: Activity Test for Inhibition of Viral Replication at Cellular Level […]
# The present inventors tested inhibitory effects of the compound of the present invention on cytopathic effects (CPE) caused by viral infection on mammalian cells.
# Half-inhibitory concentration IC50 and half toxic concentration TC50 of the compound against Dengue Virus 2 (type 2 dengue virus) in host cell Vero (African green monkey kidney cell).
# [6] = tested on: Zika Virus; assay: Inhibition of viral replication (CPE) at cellular level, Zika Virus in Vero; details: for SI (TC50/IC50): Zika Virus in host cell Vero; for IC50: Zika virus, Vero
# [7] = tested on: H7N9 (influenza virus); details: H7N9 in host cell MDCK
# [8] = tested on: EV71 (hand-foot-and-mouth virus); details: for SI (TC50/IC50): EV71 in host cell RD
# [9] = tested on: H3N2 (influenza virus); details: H3N2 in host cell MDCK
# [10] = tested on: H7N9 (influenza virus); assay: microbe, parasite or virus in culture; details: Influenza A virus, H7N9, MDCK
# [11] = tested on: EV71 (hand-foot-and-mouth virus); assay: microbe, parasite or virus in culture; details: Enterovirus A
# [12] = tested on: H3N2 (influenza virus); assay: microbe, parasite or virus in culture; details: Influenza A virus, H3N2, MDCK
# [13] = tested on: H1N1 (influenza virus); details: H1N1 in host cell MDCK
# [14] = tested on: RSV (human respiratory syncytial virus); assay: Inhibition of viral replication (CPE) at cellular level, RSV in Vero; details: for SI (TC50/IC50): RSV in host cell Vero; for IC50: human respiratory syncytial virus, Vero
# [15] = in vitro; details: dog, TC50
# [16] = TC50, host cell Vero, Dengue Virus 2 table
# [17] = TC50, host cell Vero, RSV table
# [18] = TC50, host cell Vero, Zika Virus table
Structure (SMILES),"CC50 [1, 16]","CC50 [1, 17]","CC50 [1, 18]",IC50 [2],SI (TC50/IC50) [3],IC50 [3],CC50 [4],SI (TC50/IC50) [5],IC50 [5],SI (TC50/IC50) [6],IC50 [6],SI (TC50/IC50) [7],SI (TC50/IC50) [8],SI (TC50/IC50) [9],IC50 [10],IC50 [11],IC50 [12],SI (TC50/IC50) [13],SI (TC50/IC50) [14],IC50 [14],also measured
Cc1ccc(/C=N/Nc2nc(-c3ccccc3Cl)cs2)c(C(=O)O)c1 [Compound 9-1],39000 nM,135000 nM,42000 nM,360 nM,100,320 nM,3000 nM,125.8,310 nM,127,330 nM,327,9,330,670 nM,330 nM,270 nM,653,40,3360 nM,CC50 [1]: 32000 nM
"CN(/N=C/c1ccc(F)cc1C(=O)O)c1nc(-c2ccccc2Cl)cs1 [Compound 10, (E)-4-(2-chlorophenyl)-2-[1-methyl-2-(2-carboxyl-4-fluorobenzylidene)hydrazino]thiazole]",23000 nM,19000 nM,21000 nM,210 nM,216,60 nM,500 nM,460,50 nM,350,60 nM,161,10,320,280 nM,50 nM,100 nM,233,3.6,5210 nM,CC50 [1]: 13000 nM; CC50 [15]: 32000 nM; inhibitory effects on human hand-foot-mouth virus EV71 ([8]; FIG. 2): a certain inhibitory effects
O=C(O)c1cc(F)ccc1/C=N/Nc1nc(-c2ccccc2Cl)cs1 [Compound 10-1],45000 nM,50000 nM,89000 nM,390 nM,306,160 nM,1000 nM,300,150 nM,523,170 nM,516,5.6,313,490 nM,180 nM,310 nM,615,6.8,7390 nM,CC50 [1]: 49000 nM
"Cc1sc(N(C)/N=C/c2ccccc2C(=O)O)nc1-c1ccccc1 [Compound 12, (E)-5-methyl-4-phenyl-2-[1-methyl-2-(2-carboxybenzylidene)hydrazino]thiazole]",17000 nM,21000 nM,13000 nM,790 nM,100,130 nM,1000 nM,65,260 nM,56.5,230 nM,54,4,146,1090 nM,250 nM,350 nM,77,11.7,1790 nM,CC50 [15]: 51000 nM
Cc1sc(N/N=C/c2ccccc2C(=O)O)nc1-c1ccccc1 [Compound 12-1],23000 nM,39000 nM,33000 nM,910 nM,138.7,310 nM,2000 nM,59,390 nM,110,300 nM,108,5,246,2300 nM,390 nM,520 nM,362,5.6,6910 nM,CC50 [1]: 43000 nM
O=C(O)c1cc(F)c(F)cc1/C=N/Nc1nc(-c2ccccc2Cl)cs1 [Compound 23-1],78000 nM,101000 nM,76000 nM,670 nM,124,290 nM,2000 nM,200,390 nM,262,290 nM,152,5.4,477,670 nM,370 nM,260 nM,300,19,5670 nM,CC50 [1]: 36000 nM; CC50 [15]: 124000 nM
